In one assay the target is T1, human μ-calpain (Homo sapiens, UniProt P07384).
T1 construct: purchased Calbiochem
T1 sequence (P07384 1-714): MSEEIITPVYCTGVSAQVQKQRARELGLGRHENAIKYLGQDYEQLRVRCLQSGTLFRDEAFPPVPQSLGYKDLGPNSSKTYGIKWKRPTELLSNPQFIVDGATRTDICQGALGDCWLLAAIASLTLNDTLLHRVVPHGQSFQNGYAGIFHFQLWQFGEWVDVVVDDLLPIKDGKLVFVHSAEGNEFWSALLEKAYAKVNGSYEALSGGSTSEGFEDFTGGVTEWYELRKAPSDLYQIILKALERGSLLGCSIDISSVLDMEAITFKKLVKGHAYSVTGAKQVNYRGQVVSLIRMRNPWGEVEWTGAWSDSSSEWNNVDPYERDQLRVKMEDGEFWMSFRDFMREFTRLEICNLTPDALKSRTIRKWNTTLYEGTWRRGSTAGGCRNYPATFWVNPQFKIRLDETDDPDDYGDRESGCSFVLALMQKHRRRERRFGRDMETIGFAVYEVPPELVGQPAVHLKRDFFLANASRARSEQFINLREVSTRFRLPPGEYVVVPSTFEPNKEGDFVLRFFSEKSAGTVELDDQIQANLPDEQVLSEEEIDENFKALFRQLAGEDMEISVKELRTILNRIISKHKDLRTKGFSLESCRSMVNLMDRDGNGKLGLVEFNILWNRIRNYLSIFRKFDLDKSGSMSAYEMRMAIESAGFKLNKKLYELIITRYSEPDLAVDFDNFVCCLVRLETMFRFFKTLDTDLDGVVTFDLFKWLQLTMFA
T1 sequence (P04632 1-268 partner): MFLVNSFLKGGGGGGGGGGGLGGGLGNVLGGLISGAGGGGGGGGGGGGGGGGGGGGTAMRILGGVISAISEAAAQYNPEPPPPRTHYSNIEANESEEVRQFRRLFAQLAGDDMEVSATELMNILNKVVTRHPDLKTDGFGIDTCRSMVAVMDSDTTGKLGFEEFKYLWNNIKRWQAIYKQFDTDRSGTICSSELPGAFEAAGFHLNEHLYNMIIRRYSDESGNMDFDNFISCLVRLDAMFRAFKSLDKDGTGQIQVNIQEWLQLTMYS
The assay is described as follows: Enzymatic calpain inhibition assay. It is filed as biochemical. The following applies: substrate Suc-Leu-Tyr-AMC, read-out: Calp I IC50. The procedure:
The Ki value was also determined in some cases. These criteria were used to measure the inhibitory effect of the compounds (I) on calpain I, calpain II and cathepsin B.
Enzymatic Calpain Inhibition Assay
The inhibitory properties of calpain inhibitors are tested in 100 μl of a buffer containing 100 mM imidazole pH 7.5, 5 mM L-Cystein-HCl, 5 mM CaCl2, 250 μM of the calpain fluorogenic substrate Suc-Leu-Tyr-AMC (Sigma) (Sasaki et al., J. Biol. Chem., 1984, 259, 12489-12949) dissolved in 2.5 μl DMSO and 0.5 μg of human μ-calpain (Calbiochem). The inhibitors dissolved in 1 μl DMSO are added to the reaction buffer. The fluorescence of the cleavage product 7-amino-4-methylcoumarin (AMC) is followed in a SPECTRAmax GEMINI XS (Molecular Device) fluorimeter at λex=360 nm and λem=440 nm at 30° C. during 30 min at intervals of 30 sec in 96-well plates (Greiner). The initial reaction velocity at different inhibitor concentrations is plotted against the inhibitor concentration and the IC50 values determined graphically.

The subject of assay [1] is cellular calpains in C2C12 myoblasts. The assay can be described thus: Calpain inhibition assay in C2C12 myoblasts. It counts as cell-based. To be noted: 2 h incubation, calcium ionophore Br-A-23187, read-out: Calp I IC50 Myoblast. The procedure:
Calpain Inhibition Assay in C2C12 Myoblasts
This assay is aimed at monitoring the ability of the substance to inhibit cellular calpains. C2C12 myoblasts are grown in 96-well plates in growth medium (DMEM, 20% foetal calf serum) until they reach confluency. The growth medium is then replaced by fusion medium (DMEM, 5% horse serum). 24 hours later the fusion medium is replaced by fusion medium containing the test substances dissolved in 1 μl DMSO. After 2 hours of incubation at 37° C. the cells are loaded with the calpain fluorogenic substrate Suc-Leu-Tyr-AMC at 400 μM in 50 μl of a reaction buffer containing 135 mM NaCl; 5 mM KCl; 4 mM CaCl2; 1 mM MgCl2; 10 mM Glucose; 10 mM HEPES pH 7.25 for 20 min at room temperature. The calcium influx, necessary to activate the cellular calpains, is evoked by the addition of 50 μl reaction buffer containing 20 μM of the calcium ionophore Br-A-23187 (Molecular Probes). The fluorescence of the cleavage product AMC is measured as described above during 60 min at 37° C. at intervals of 1 min. The IC50 values are determined as described above. Comparison of the IC50 determined in the enzymatic calpain inhibition assay to the IC50 determined in the C2C12 myoblasts calpain inhibiton assay, allows to evaluate the cellular uptake or the membrane permeability of the substance.

The test system of assay [2] is Primary fibroblasts from donors with Friedreich Ataxia (FRDA). The assay is described as follows: BSO assay (cell viability under BSO-induced oxidative stress). It is filed as cell-based, human. The following applies: 24 h preincubation, 1 mM BSO; for EC50: Homo sapiens, Fibroblast. The procedure: Primary fibroblasts were derived from donors with molecular diagnosis for Friedreich Ataxia (FRDA) and control donors with no mitochondrial disease. Cell lines were obtained from Coriell Cell Repositories (Camden, N.J.; catalog numbers GM04078, GM08402 and GM08399 respectively). All cell types were diagnosed on the molecular level for intronic […] triplet repeat length of at least 400-450 repeats using a PCR-based method. Experiments were carried out as described in the literature (M. L. Jauslin et al., Human Mol. Genet., 2002, 11, 3055-3063): Cells were seeded in microtiter plates at a density of 4'000 cells per 100 μl in growth medium consisting of 25% (v/v) M199 EBS and 64% (v/v) MEM EBS without phenol red (Bioconcept, Allschwil, Switzerland) supplemented with 10% (v/v) fetal calf serum (PAA Laboratories, Linz, Austria), 100 U/ml penicillin, 100 μg/ml streptomycin (PAA Laboratories, Linz, Austria), 10 μg/ml insulin (Sigma, Buchs, Switzerland), 10 ng/ml EGF (Sigma, Buchs, Switzerland), 10 ng/ml bFGF (PreproTech, Rocky Hill, N.J.) and 2 mM glutamine (Sigma, Buchs, Switzerland). The cells were incubated in the presence of various test compounds for 24 h before addition of L-buthionine-(S,R)-sulfoximine (BSO) to a final concentration of 1 mM. Cell viability was measured after the first signs of toxicity appeared in the BSO-treated controls (typically after 16 to 48 h). The cells were stained for 60 min at room temperature in PBS with 1.2 μM calcein AM and 4 μM ethidium homodimer (Live/Dead assay, Molecular Probes, Eugene, Oreg.). Fluorescence intensity was measured with a Gemini Spectramax XS spectrofluorimeter (Molecular Devices, Sunnyvale, Calif.) using excitation and emission wavelengths of 485 nm and 525 nm respectively.

Some results are limits rather than exact numbers.

Data on 21 compounds can be found in patent US20060258598A1, “Alpha-keto carbonyl calpain inhibitors” (priority 2003, published 2006).

Usually IC50 stands for the point on the concentration scale where inhibition reaches its midpoint. What is called EC50 is the concentration that produces a half-maximal response. For the compound `CCNC(=O)C(=O)[C@H](Cc1ccc(C)cc1)NC(=O)[C@H](CC(C)C)NC(=O)CCCCC1CCS[S+]1[O-]` (stereo partly drawn) [Example 111], the IC50 at human μ-calpain turned out to be 0.025 µM; in assay [1] it was 1.2 µM. For the same compound, the EC50 in assay [2] was 3 µM.
In the case of `CCNC(=O)C(=O)[C@H](Cc1ccc(Cl)c(Cl)c1)NC(=O)[C@H](CC(C)C)NC(=O)CCCCC1CCSS1` (stereo partly drawn) [Example 31], the half-inhibitory concentration (IC50) at human μ-calpain is 0.03 µM; in assay [1], 2.5 µM. In addition, the response in assay [2] was half-maximal at 15 µM (EC50).
On the same counts, the results for `Cc1ccc(S(=O)(=O)CNC(=O)C(=O)[C@H](Cc2ccc(Cl)cc2)NC(=O)[C@H](CC(C)C)NC(=O)CCCCC2CCS[S+]2[O-])cc1` (stereo partly drawn) [Example 26] are 0.12 µM, 2 µM and 4 µM.
For `CCNC(=O)C(=O)[C@H](Cc1ccccc1)NC(=O)[C@@H](NC(=O)CNC(=O)CCCCC1CCSS1)C(C)C` (stereo partly drawn) [Example 207], in that order: 0.047 µM, 8 µM and 30 µM.
On the same counts, the results for `CCNC(=O)C(=O)[C@H](Cc1ccc(OC)cc1)NC(=O)[C@H](CC(C)C)NC(=O)CCCCC1CCS[S+]1[O-]` (stereo partly drawn) [Example 95] are 0.035 µM, 2.5 µM and 10 µM.
For `CCNC(=O)C(=O)[C@H](Cc1ccc(Br)cc1)NC(=O)[C@H](CC(C)C)NC(=O)CNC(=O)CCCCC1CCS[S+]1[O-]` (stereo partly drawn) [Example 187], the IC50 turned out to be 0.015 µM on human μ-calpain and 7.5 µM in assay [1]. Also, the EC50 in assay [2] was 20 µM.
On the same counts, the results for `CCNC(=O)C(=O)[C@H](Cc1ccc(OC)cc1)NC(=O)[C@@H](NC(=O)C1(NC(=O)CCCCC2CCSS2)CCCCC1)C(C)C` (stereo partly drawn) [Example 195] are 0.17 µM, 1.5 µM and 5 µM.
For `CCNC(=O)C(=O)[C@H](Cc1ccc(Br)cc1)NC(=O)[C@@H](NC(=O)CCCCC1CCS[S+]1[O-])C(C)CC` (stereo partly drawn) [Example 75], the IC50 worked out at 0.75 µM at human μ-calpain and 9 µM in assay [1]. Moreover, in assay [2], the EC50 was 6 µM.
Regarding `CCNC(=O)C(=O)[C@H](Cc1ccc(Cl)cc1Cl)NC(=O)[C@H](CC(C)C)NC(=O)CCCCC1CCSS1` (stereo partly drawn) [Example 35], the values for the IC50 (on human μ-calpain; in assay [1]) were 0.05 µM and 3 µM, respectively. Moreover, the “BSO EC50” value in assay [2] is “inactive”.
Consider `CCNC(=O)C(=O)[C@H](Cc1ccc(Cl)cc1)NC(=O)[C@H](CC(C)C)NC(=O)CNC(=O)CCCCC1CCS[S+]1[O-]` (stereo partly drawn) [Example 177], for which the IC50 on human μ-calpain was 0.009 µM; in assay [1], 2.5 µM. The compound further showed an EC50 in assay [2] of 6 µM.
As to `CCNC(=O)C(=O)[C@H](Cc1ccc(Cl)cc1)NC(=O)[C@@H](NC(=O)CCCCNC(=O)CCCCC1CCSS1)C(C)C` (stereo partly drawn) [Example 175], the IC50 on human μ-calpain came to 0.1 µM; in assay [1], 20 µM. Moreover, in assay [2], the EC50 is more than 100 µM.
On the same counts, the results for `CCNC(=O)C(=O)[C@H](Cc1ccc(Cl)cc1)NC(=O)[C@@H](NC(=O)CCCNC(=O)CCCCC1CCSS1)C(C)C` (stereo partly drawn) [Example 174] are 0.02 µM, 2.5 µM and 6 µM.
Take `CCNC(=O)C(=O)[C@H](Cc1ccc(OC)cc1)NC(=O)[C@@H](NC(=O)CCCCC1SC[C@@H]2NC(=O)N[C@H]12)C(C)C` (stereo partly drawn) [Example 165]: the IC50 on human μ-calpain was 0.085 µM; in assay [1], 11 µM. Further, in assay [2], a half-maximal response (EC50) required 60 µM.
On the same counts, the results for `CCNC(=O)C(=O)[C@H](Cc1ccc(F)cc1)NC(=O)[C@H](CC(C)C)NC(=O)CCCCC1CCS[S+]1[O-]` (stereo partly drawn) [Example 40] are 0.035 µM, 15 µM and 3 µM.
For `CCNC(=O)C(=O)[C@@H](NC(=O)[C@@H](NC(=O)CCCCC1CCSS1)C(C)C)c1ccccc1` (stereo partly drawn) [Example 153], in that order: 0.4 µM, 2 µM and 2.5 µM.
As to `CCNC(=O)C(=O)[C@H](Cc1ccc([N+](=O)[O-])cc1)NC(=O)[C@H](CC(C)C)NC(=O)CCCCC1CCSS1` (stereo partly drawn) [Example 136], the figures for the IC50 (at human μ-calpain; in assay [1]) were 0.02 µM and 8 µM, respectively. Moreover, the “BSO EC50” value in assay [2] is “inactive”.
As for `CCNC(=O)C(=O)[C@H](Cc1ccc(Cl)cc1Cl)NC(=O)[C@H](CC(C)C)NC(=O)CCCCC1CCS[S+]1[O-]` (stereo partly drawn) [Example 36], the IC50 at human μ-calpain is 0.04 µM; in assay [1], 5 µM. For the same compound, in assay [2], the EC50 stood at 3 µM.
For the compound `CCNC(=O)C(=O)[C@H](Cc1ccc(Cl)cc1)NC(=O)[C@@H](NC(=O)CCNC(=O)CCCCC1CCS[S+]1[O-])C(C)C` (stereo partly drawn) [Example 173], the results for the IC50 (at human μ-calpain; in assay [1]) were 0.2 µM and 40 µM, respectively. In addition, in assay [2], a half-maximal response (EC50) required 25 µM.
With `CCNC(=O)C(=O)[C@H](Cc1ccc(O)cc1)NC(=O)[C@@H](NC(=O)CCCCC1CCSS1)C(C)C` (stereo partly drawn) [Example 80], the IC50 was determined as 0.15 µM on human μ-calpain and 2.5 µM in assay [1]. The compound also displayed an EC50 in assay [2] of 6 µM.
On the same counts, the results for `CCNC(=O)C(=O)[C@H](Cc1ccc(C)cc1)NC(=O)[C@@H](NC(=O)CCCCC1CCSS1)C(C)CC` (stereo partly drawn) [Example 116] are 0.3 µM, 1 µM and 2 µM.
On the same counts, the results for `Cc1ccc(S(=O)(=O)CNC(=O)C(=O)[C@H](Cc2ccc(Cl)cc2)NC(=O)[C@@H](NC(=O)CCCCC2CCSS2)C(C)C)cc1` (stereo partly drawn) [Example 13] are 0.2 µM, 0.5 µM and 1 µM.
